In the RepoRT retention time repository (doi:10.1007/s00216-021-03828-0) one finds LC retention time data, which are given here for 11 compounds.

Holding throughout (conditions): stereoisomer not certain
Series [1] in a line: RP, Merck Supelco Ascentis Express C18, 100 × 2.1 mm, 2 µm, 40 °C, 0.4 mL/min, estimated dead time 0.55 min; A: water + 0.1% formic acid, pH 3; B: acetonitrile + 0.1% formic acid, pH 3; gradient (min/%B) 0/5 2/5 17/99.9 20/99.9.
Experiment in series [2]: as above
The source holds these as a separate data set.

A short description of series [3]: RP, Merck Supelco Ascentis Express C18, 100 × 2.1 mm, 2 µm, 40 °C, 0.25 mL/min, estimated dead time 0.88 min; A: water + 0.1% formic acid, pH 3; B: acetonitrile + 0.1% formic acid, pH 3; gradient (min/%B) 0/5 2/5 17/99.9 20/99.9.
Series [4] can be described thus: RP, Merck Supelco Ascentis Express C18, 100 × 2.1 mm, 2 µm, 40 °C, 0.2 mL/min, estimated dead time 1.1 min; A: water + 0.1% formic acid, pH 3; B: acetonitrile + 0.1% formic acid, pH 3; gradient (min/%B) 0/5 2/5 17/99.9 20/99.9.
A short description of series [5]: RP, Merck Supelco Ascentis Express C18, 100 × 2.1 mm, 2 µm, 39 °C, 0.3 mL/min, estimated dead time 0.73 min; A: water + 0.1% formic acid, pH 3; B: acetonitrile + 0.1% formic acid, pH 3; gradient (min/%B) 0/5 2/5 17/99.9 20/99.9.
Series [6] can be described thus: RP, Merck Supelco Ascentis Express C18, 100 × 2.1 mm, 2 µm, 40 °C, 0.2 mL/min, estimated dead time 1.1 min; A: water + 0.1% formic acid, pH 3; B: acetonitrile + 0.1% formic acid, pH 3; gradient (min/%B) 0/5 2/5 17/99.9 20/99.9. This is another data set of the same source.
Series [7] in a line: RP, Merck Supelco Ascentis Express C18, 100 × 2.1 mm, 2 µm, 40 °C, 0.35 mL/min, estimated dead time 0.63 min; A: water + 0.1% formic acid, pH 3; B: acetonitrile + 0.1% formic acid, pH 3; gradient (min/%B) 0/5 2/5 17/99.9 20/99.9.

As for `O=C(O)C(O)c1ccccc1` (configuration not stated) [MANDELATE], the LC retention time is 2.88 min in series [1]; 2.95 min in series [2]; 4.19 min in series [3]; 4.83 min in series [4]; 3.67 min in series [5]; 4.85 min in series [6]. The LC retention time in series [7] is 3.27 min.
`COc1ccc2[nH]cc(CCNC(C)=O)c2c1` [MELATONIN]: the LC retention time is 5.49 min in series [1]; 5.53 min in series [2]; 6.46 min in series [3]; 7 min in series [4]; 6.06 min in series [5]; 7.01 min in series [6]. The LC retention time in series [7] is 5.75 min.
Turning to `CC(CC(=O)O)CC(=O)O` [METHYGLUTARATE], the LC retention time in series [1] is 1.91 min; in series [2], 1.95 min; in series [3], 3.09 min; in series [4], 3.84 min; in series [5], 2.6 min; in series [6], 3.82 min. In addition, in series [7], the LC retention time is 2.21 min.
Turning to `CSCC1OC(n2cnc3c(N)ncnc32)C(O)C1O` (configuration not stated) [METHYLTHIOADENOSINE], the LC retention time in series [1] was 2.27 min; in series [2] it was 2.3 min; in series [3] it was 3.51 min; in series [4], 4.08 min; in series [5], 2.98 min; in series [6], 4.07 min. The LC retention time in series [7] is 2.58 min.
Regarding `CCCCCCCCCCCCCC(=O)O` [MYRISTATE], the LC retention time in series [1] is 14.2 min; in series [2], 14.3 min; in series [3] it was 15.6 min; in series [4], 16.4 min; in series [5], 15 min; in series [6] it was 16.4 min. In addition, the LC retention time in series [7] was 14.6 min.
`CC(C)=CCNc1ncnc2nc[nH]c12` [N6-(DELTA2-ISOPENTENYL)-ADENINE]: the LC retention time was 4.21 min in series [1]; 4.24 min in series [2]; 5.08 min in series [3]; 5.58 min in series [4]; 4.71 min in series [5]; 5.58 min in series [6]. Besides, in series [7], the LC retention time was 4.44 min.
For the compound `CC(=O)NC(C)C(=O)O` (configuration not stated) [N-ACETYLALANINE], the LC retention time is 0.74 min in series [1]; 0.737 min in series [2]; 1.19 min in series [3]; 1.52 min in series [4]; 1.01 min in series [5]; 1.51 min in series [6]. In addition, in series [7], the LC retention time is 0.853 min.
With `CC(=O)NC(CS)C(=O)O` (configuration not stated) [N-ACETYLCYSTEINE], the LC retention time in series [1] is 0.937 min; in series [2], 0.95 min; in series [3], 1.52 min; in series [4], 1.92 min; in series [5], 1.26 min; in series [6], 1.91 min. The LC retention time in series [7] was 1.09 min.
With `CC(=O)NC(CC(C)C)C(=O)O` (configuration not stated) [N-ACETYLLEUCINE], the LC retention time in series [1] is 4.36 min; in series [2], 4.39 min; in series [3], 5.35 min; in series [4] it was 5.9 min; in series [5], 4.93 min; in series [6] it was 5.89 min. Moreover, the LC retention time in series [7] is 4.63 min.
In the case of `CC(=O)NC(Cc1ccccc1)C(=O)O` (configuration not stated) [N-ACETYLPHENYLALANINE], the LC retention time was 4.78 min in series [1]; 4.82 min in series [2]; 5.77 min in series [3]; 6.31 min in series [4]; 5.37 min in series [5]; 6.32 min in series [6]. The LC retention time in series [7] was 5.04 min.
`CC(=O)N1CCCC1C(=O)O` (configuration not stated) [N-ACETYLPROLINE]: the LC retention time is 1.39 min in series [1]; 1.46 min in series [2]; 2.22 min in series [3]; 2.77 min in series [4]; 1.89 min in series [5]; 2.76 min in series [6]. Further, the LC retention time in series [7] was 1.58 min.
